Measured values reported in patent US7964604B2, “Bifeprunox mesylate maintenance dose compositions and methods for using the same” (Solvay Pharmaceuticals B.V., priority 2005, dated 2011).
Where two headings read alike, the source gives them in different places.

Assays:
[1] = biological target: T1, CYP3A4 (Homo sapiens, UniProt P08684); assay: Metabolism based on in vivo data; design: from tissue; host or cells: endogenous enzyme of clinical subjects (in vivo)
Method: (§1) Based on those pharmacokinetics, bifeprunox (an investigational partial dopamine agonist antipsychotic compound) was rapidly absorbed after oral administration. Multiple-dose PK of bifeprunox were dose proportional over the range of 20 to 40 mg doses. Bifeprunox was extensively distributed into peripheral tissues and highly protein bound. It was primarily eliminated in the feces. […] Bifeprunox has a low drug interaction potential with other drugs used in these studies (e.g. lithium, warfarin and famotidine).

[2] = biological target: T2, CYP2C9 (Homo sapiens, UniProt P11712); assay: Metabolism based on in vivo data; design: from tissue; host or cells: endogenous enzyme of clinical subjects (in vivo)
T2 sequence (P11712 whole entry): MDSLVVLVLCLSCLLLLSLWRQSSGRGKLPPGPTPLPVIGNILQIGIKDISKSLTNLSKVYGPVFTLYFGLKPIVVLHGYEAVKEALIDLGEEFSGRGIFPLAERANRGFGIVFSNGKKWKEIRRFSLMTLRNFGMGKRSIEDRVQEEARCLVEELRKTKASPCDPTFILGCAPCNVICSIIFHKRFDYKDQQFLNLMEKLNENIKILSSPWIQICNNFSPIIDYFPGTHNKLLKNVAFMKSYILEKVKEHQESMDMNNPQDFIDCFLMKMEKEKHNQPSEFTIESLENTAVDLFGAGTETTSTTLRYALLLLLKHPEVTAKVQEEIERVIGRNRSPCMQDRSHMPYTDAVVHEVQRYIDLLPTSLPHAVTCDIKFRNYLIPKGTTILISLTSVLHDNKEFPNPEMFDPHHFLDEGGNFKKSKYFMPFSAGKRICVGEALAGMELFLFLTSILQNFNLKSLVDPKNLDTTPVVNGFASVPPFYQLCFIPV
Method: as §1

[3] = In vitro metabolism; type: in vitro ADME; conditions: in vitro data, CYP2A4
[4] = biological target: T2, CYP2C9; assay: In vitro metabolism; type: in vitro ADME; conditions: in vitro data
[5] = Pooled analysis of pharmacokinetic parameters in healthy subjects; type: in vivo, human
Text: (§2) The pharmacokinetics of bifeprunox in healthy subjects were investigated based on a pooled analysis of pharmacokinetic (PK) parameters from 21 clinical pharmacology studies. The pooled analysis included PK profiles obtained following single and multiple doses administered to 132 and 399 subjects, respectively, and explored the potential effects of age, gender, body weight and race. In addition, PK in patients (PTS) with schizophrenia were investigated using a population PK approach based on samples from 376 subjects in phase II studies and 434 subjects in phase III studies.
(§3) In healthy subjects and patients with schizophrenia, the maximum tolerated single dose of bifeprunox was 0.5 mg. Tolerance to dose-limiting side effects (nausea, dizziness, vomiting, and orthostatic hypotension) developed as the dosage was titrated upwards. All PK assessments at doses higher than 0.5 mg were performed following multiple dosages under steady-state conditions. Doses of 5-40 mg were administered in efficacy studies. PK parameters describing absorption, distribution, metabolism, and elimination were calculated based on non-compartmental analysis. PK parameter values from each study were combined to create a pooled dataset. The potential influence of gender, body weight, and race on bifeprunox PK was analyzed.

[6] = Tablet dissolution test (paddle method); type: physicochemical; conditions: McILvaine buffer pH 3.0
Method: Three different strengths of tablets (10 mg, 5 mg and 1 mg of bifeprunox mesylate) were prepared having the compositions shown in Table 10; the tablets were designated T1, T2 and T3, respectively.
Each of the tablets were placed in a dissolution test under the following conditions: Apparatus: paddle method; Stirring speed: 50 rpm; Amount of test dissolution medium: 900 ml; Temperature of dissolution medium: 37° C.±0.5° C.
Six different dissolution media were used as follows:
Media 1: Dissolve 2.0 g of sodium chloride dissolved in 7.0 ml of hydrochloric acid, q.s. with water to make 1000 ml (pH 1.2);
Media 2: McILvaine buffer solution (pH 3.0), pH adjusted with 0.05 mol/L of sodium hydrogen phosphate and 0.025 mol/L of citric acid;
Media 3: McILvaine buffer solution (pH 4.0);
Media 4: McILvaine buffer solution (pH 5.0);
Media 6: To 250 ml of 0.2 mol/L potassium dihydrogenphosphate TS add 118 ml of 0.2 mol/L sodium hydroxide TS and water to make 1000 ml.
Dissolution testing was performed in triplicate.

[7] = PK in healthy subjects with reduced CYP2C enzyme activity; type: in vivo, human
[8] = biological target: T1, CYP3A4; assay: In vitro metabolism; type: in vitro ADME; conditions: in vitro data
[9] = system: plasma proteins; assay: Plasma protein binding; type: in vitro ADME; conditions: human, healthy patients as well as those with renal or hepatic impairment, read-out: bound to plasma proteins
Text: Apparent volume of distribution (Vz/F) was 1300 L. Based upon the volume of distribution, bifeprunox was extensively distributed into the peripheral tissues. […] Bifeprunox was more than 99% bound to plasma proteins in healthy patients as well as those with renal or hepatic impairment.

[10] = Population PK assessment in patients with schizophrenia; type: in vivo, human; conditions: schizophrenia patients (SP)
Text: as §2
A population-based PK assessment using compartmental methods was conducted in 810 patients with schizophrenia enrolled in several clinical studies.

[11] = Maximum tolerated single dose; type: in vivo, human; conditions: healthy subjects and patients with schizophrenia
Method: as §3

[12] = Drug-drug interactions (co-administration); type: in vivo, human
Text: Co-administration with […] paroxetine had no effect on bifeprunox PK. Bifeprunox exposure was reduced by approximately 50% after co-administration with the CYP3A4 inducer carbamazepine. […] Bifeprunox had no effect on the PK and pharmacodynamics of warfarin and the PK of lithium. […] Administration of famotidine, an H2 antagonist that inhibits gastric acid secretion, had no effect on bifeprunox PK.

[13] = Administration with a high-fat meal; type: in vivo, human; conditions: 40 mg dose
Method: Bifeprunox was rapidly absorbed after oral administration. The median time to peak plasma concentration (Tmax) was approximately 2 hours. Multiple patients were dosed proportional in the 20 to 40 mg/day range (mean AUC0-24 for 20 mg: 381.5 ng·hr/mL and mean AUC0-24 for 40 mg: 825.1 ng·hr/mL). […] Absolute oral bioavailability of the bifeprunox tablets used in the pooled studies has not been determined.

[14] = Stability of polymorphic forms; type: physicochemical; conditions: for thermodynamic stability of the crystalline form: monomethanesulfonate
Text: During further investigations it appeared that polymorphs γ and δ are metastable, and therefore may have drawbacks when used in a pharmaceutical formulation. The unpredictable formation of one of the two polymorphs γ and δ or a mixture thereof is also undesirable. It would be desirable, therefore, to provide a stable crystalline form of 7-[4-([1,1′-biphenyl]-3-ylmethyl)-1-piperazinyl]-2(3H)-benzoxazolone monomethanesulfonate for pharmaceutical use which can be consistently produced.
Furthermore this crystalline form crystallizes in the form of large crystals which can be easily filtrated and have a high purity. Therefore this polymorph α is particularly suitable for the formulation of bifeprunox mesylate in a solid form, if desired after particle size reduction.

[15] = co-administration with carbamazepine
[16] = co-administration with fluconazole
[17] = co-administration with ketoconazole

T1 sequence (P08684 whole entry): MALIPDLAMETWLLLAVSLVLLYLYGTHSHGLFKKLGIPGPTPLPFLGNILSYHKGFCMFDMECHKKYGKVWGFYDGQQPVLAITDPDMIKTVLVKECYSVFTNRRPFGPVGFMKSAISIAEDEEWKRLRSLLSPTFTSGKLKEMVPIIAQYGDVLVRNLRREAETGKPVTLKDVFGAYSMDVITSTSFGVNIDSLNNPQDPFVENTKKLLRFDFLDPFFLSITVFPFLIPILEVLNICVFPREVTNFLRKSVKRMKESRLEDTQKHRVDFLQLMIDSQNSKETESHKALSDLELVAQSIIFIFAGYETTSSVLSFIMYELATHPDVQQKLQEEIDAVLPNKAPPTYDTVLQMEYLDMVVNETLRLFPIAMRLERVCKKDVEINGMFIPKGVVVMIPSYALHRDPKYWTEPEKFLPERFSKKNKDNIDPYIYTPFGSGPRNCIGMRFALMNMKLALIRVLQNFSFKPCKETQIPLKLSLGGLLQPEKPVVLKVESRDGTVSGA

## O=c1[nH]c2cccc(N3CCN(Cc4cccc(-c5ccccc5)c4)CC3)c2o1 [bifeprunox, 7-[4-([1,1′-biphenyl]-3-ylmethyl)-1-piperazinyl]-2(3H)-benzoxazolone monomethanesulfonate]
[1]
  metabolism by enzyme, based on in vivo data: to a lesser extent
[2]
  metabolism by enzyme, based on in vivo data: primarily metabolized
[3]
  metabolism in the liver by enzyme: minor contribution
[4]
  metabolism in the liver by enzyme: primarily
[5]; based on hepatic blood flow and oral clearance
  Bioavailability (predicted): 54%
[5]; following multiple dose administration
  mean steady-state elimination half-life (t1/2): 14.4 hours and approximately 14 hours
[5]; healthy subjects (HS)
  Cl/F: 62.2 L/h
[5]; human, blood and plasma
  blood plasma ratio: 0.7 to 0.9
[5]; human, in vivo
  Vd/F: ~1300 L
  distribution of bifeprunox or its metabolites into red blood cells: No extensive distribution
  half-life: 14 h
[5]; human, in vivo, multiple dose, 20 and 40 mg/day, mean ± SD, read-out: T1/2 (converted)
  half-life: 14.4 ± 5.3 h
[5]; human, plasma, oral, 20 mg, multiple dose, read-out: mean AUC0-24
  AUC(0-t): 382 ng·h/mL
[5]; human, plasma, oral, 40 mg, multiple dose, read-out: mean AUC0-24
  AUC(0-t): 825 ng·h/mL
[5]; human, plasma, oral, healthy subjects, read-out: Apparent volume of distribution (Vz/F)
  Vd/F: 1300 L
[5]; human, plasma, oral, multiple dose, 20 and 40 mg/day, dose normalized to 20 mg, mean ± SD
  Cmax: 62.1 ± 38.2 ng/mL
[5]; human, plasma, oral, multiple dose, 20 and 40 mg/day, dose normalized to 20 mg, mean ± SD, read-out: AUC0-24
  AUC(0-t): 402 ± 292 ng·h/mL
[5]; human, plasma, oral, multiple dose, 20 and 40 mg/day, mean ± SD, read-out: Vzbw/F (apparent volume of distribution corrected by body weight)
  Vd/F: 17.3 ± 9.4 L/kg
[5]; human, plasma, oral, multiple dose, 20 and 40 mg/day, median (range), read-out: Tmax
  Tmax: 2 h
[5]; human, plasma, po, multiple dose, 20 and 40 mg/day, mean ± SD, read-out: CLbw/F (weight normalized oral clearance) (converted)
  CL/F: 15 mL/min/kg
[5]; human, plasma, oral administration, read-out: median time to peak plasma concentration (Tmax)
  Tmax: ~2 h
[5]; pooled analysis
  age-, gender-, body weight-, or race-related effects on PK: no clinically relevant
[5]; steady state
  Steady-state mean oral clearance (CL/F): 62.2 L/h
[6]
  dissolution behavior: dissolves almost immediately
[7]; intermediate metabolizers
  AUC, fold higher than for extensive metabolizers: 3.7 fold
[7]; intermediate metabolizers (reduced CYP2C activity)
  Cmax, fold higher than for extensive metabolizers: 3.1 fold
[7]; slow metabolizers
  AUC, fold higher than for extensive metabolizers: 7.1 fold
[7]; slow metabolizers (reduced CYP2C activity)
  Cmax, fold higher than for extensive metabolizers: 3.9 fold
[8]
  metabolism in the liver by enzyme: primarily
[9]
  fraction unbound: < 0.01
[10]; human, in vivo, oral
  half-life: 15 h
[10]; human, in vivo, oral, read-out: Vz/F
  Vd/F: ~1100 L
[10]
  Cl/F: 57 L/h
[11]
  maximum tolerated single dose: 0.5 mg
[12]; administration of famotidine
  effect on bifeprunox PK: no effect
[12]; bifeprunox 40 mg/day with warfarin
  prothrombin time profile following warfarin, presence versus absence of bifeprunox: comparable
[12]; [15]
  decrease of mean AUC0-24: 54%
  decrease of mean Cmax: 50%
  reduction of bifeprunox exposure: approximately 50%
[12]; [16]
  increase of mean bifeprunox AUC0-24: 3.7 fold
  increase of mean bifeprunox Cmax: 2.5 fold
[12]; [17]
  increase of bifeprunox AUC0-24: 63%
  increase of bifeprunox Cmax: 44%
[12]; co-administration with lithium
  effect of bifeprunox on the PK of lithium: no effect
[12]; co-administration with paroxetine
  effect on bifeprunox PK: no effect
[12]; co-administration with warfarin
  effect of bifeprunox on the PK and pharmacodynamics of warfarin: no effect
[13]
  Cmax increase with high-fat meal: 29%
  Tmax delay with high-fat meal: 1.5 h

## O=c1[nH]c2cccc(N3CCN(Cc4cccc(-c5ccccc5)c4)CC3)c2o1 [polymorph α, 7-[4-([1,1′-biphenyl]-3-ylmethyl)-1-piperazinyl]-2(3H)-benzoxazolone monomethanesulfonate]
[14]; high atmospheric humidity or higher temperature
  conversion of the polymorphic form: does not undergo conversion
[14]
  thermodynamic stability of the crystalline form: more thermodynamically stable

## O=c1[nH]c2cccc(N3CCN(Cc4cccc(-c5ccccc5)c4)CC3)c2o1 [polymorph γ, 7-[4-([1,1′-biphenyl]-3-ylmethyl)-1-piperazinyl]-2(3H)-benzoxazolone monomethanesulfonate]
[14]
  thermodynamic stability of the crystalline form: metastable

## O=c1[nH]c2cccc(N3CCN(Cc4cccc(-c5ccccc5)c4)CC3)c2o1 [polymorph δ, 7-[4-([1,1′-biphenyl]-3-ylmethyl)-1-piperazinyl]-2(3H)-benzoxazolone monomethanesulfonate]
[14]
  thermodynamic stability of the crystalline form: metastable
